Data on one substance can be found in patent US20100310420A1, “SENSORS” (THE TRUSTEES OF PRINCETON UNIVERSITY, priority 2003, published 2010).

In experiment [1] the test system is eJSmcp1[pJStari1, pJSxcmcp1]. Nature of the experiment: Swarming of eJSmcp1[pJStari1, pJSxcmcp1] grown with methyl-D-aspartate. Format: cell-based, E. coli. To be noted: grown in the presence vs absence of methyl-D-aspartate; Tar-expressing transformed strain. On the procedure:
(§1) eJSmcp1[pJStari1, pJSxcmcp1] is grown in the absence and in the presence of methyl-D-aspartate.

Experiment [2] deals with wild type aspartate responsive control cells. Nature of the experiment: Swarming of wild type control cells grown with methyl-D-aspartate. Format: cell-based, E. coli. To be noted: grown in the presence vs absence of methyl-D-aspartate. As for the experimental part:
as §1

In the case of methyl-D-aspartate, the Swarming entry in experiment [1] is given as “Swarming is seen in the presence of the aspartate but not in its absence”; in experiment [2], “same results are seen”.
